According to US20240350492A1, “Methods for the Prevention and Treatment of Hearing Loss” (Ting Therapeutics LLC, priority 2020, published 2024):

What was measured:
[1] = system: adult FVB mice; experiment: Mouse model of acute noise-induced hearing loss (ABR, DPOAE, synaptic ribbon counts); conditions: no noise trauma; vs saline + noise and Afatinib + noise groups
Description: Subcutaneous needle electrodes were inserted behind the pinna (inverting), vertex of the skull (non-inverting) and base of the tail (ground). Tone bursts of 5 ms duration with 0.5 ms cosine-squared envelopes delivered at a rate of 21 stimuli per second with alternating polarity were generated using BioSigRZ software and RZ6 multi I/O processor system (Tucker-Davis Technologies, FL). Stimuli were presented as open field via a speaker (MF1; TDT, FL) placed 10 cm in front of the pinna of the animal. […] Stimulus intensity was decreased in 5 dB increments, starting from 100 db SPL to 0 dB SPL. […] Before the start of every session, stimulus presenting speaker (MF1) was calibrated with a ¼″ microphone (PCB-378C10; PCB Piezotronics, NY) that was also placed 10 cm in front of the speaker.
Another group of mice were administered saline. […] ABR and DPOAE thresholds were recorded prior, 7 days, or 14 days post noise exposure.
These groups of mice were additionally tested for DPOAE threshold.

[2] = system: EGFR downstream signaling pathways (AKT and MAPK); experiment: Western blotting of EGFR downstream kinases in organ of Corti after transtympanic injection; type: in vivo, mouse; conditions: middle ear trans tympanic injection, 20 mg/ml; P28 FVB mice
Method: […]. […] Quarter 2 in the flow plot presents cells that are positive for EGFR. (B) P28 FVB mice were injected transtympanically with DMSO or 20 mg/ml of AG1478. Western blotting was performed on pooled organs of Corti to detect the phosphorylation of EGFR downstream kinases. (C) Zebrafish not injected or injected with 2 ng of scrambled or EGF ligand (EGFL) specific morpholinos (Gene Tools). […]. Quantification of the HCs was performed in SO3, O1 and O2 neuromasts. P<0.0001 versus the corresponding control (One-way ANOVA). […] (D) PCR from scrambled and EGFL morphants.
Now referring to FIGS. 2A-D, to determine whether functional EGFR is expressed in the adult cochlea, flow cytometry was used to identify epithelial cells that express EGFR protein in the adult cochlea (FIG. 2A). In P28 FVB mice, excluding dead cells and those with autofluorescence, we detected 1140±88 EGFR+; EpCAM+ (an epithelial cell marker) cells from one cochlea (Mean±SEM, n=4).

[3] = system: zebrafish neuromast hair cells; experiment: Zebrafish cisplatin ototoxicity, neuromast hair cell count; type: in vivo

**Q.** `CN(C)C/C=C/C(=O)Nc1cc2c(Nc3ccc(F)c(Cl)c3)ncnc2cc1O[C@H]1CCOC1` [Afatinib] was tested. Which “DPOAE threshold, Afatinib without noise trauma” value [1] did it give?
**A.** reduced DPOAE threshold at all f2 frequencies

**Q.** How did the “EGFR downstream signaling (AKT and MAPK) in the organ of Corti” value [2] turn out when `COc1cc2ncnc(Nc3cccc(Cl)c3)c2cc1OC` [AG1478] was run?
**A.** significantly suppressed

**Q.** With `O=C(CCCCCCC(=O)Nc1ccccc1)NO` [Vorinostat] as the molecule, how does the “protection against CIHL” value ([3]; doses of 0.002, 0.0183 and 0.165 μM, 1 hour pre-incubation, then 400 µM cisplatin for 4 hours) read?
**A.** showed protection against CIHL

**Q.** What about the “Cisplatin damage in HCs at SO3 and O1-2 neuromasts” value ([3]; pretreated with various doses) of the same molecule?
**A.** significantly reduced Cisplatin damage
